Laboratory results published in patent publication EP0039265A1, “Medicine containing a biflavanone compound” (SCIENCE UNION ET Cie SOCIETE FRANCAISE DE RECHERCHE MEDICALE, priority 1980, dated 1981).

Legend:
[1] = target: T1, aldose-réductase extraite de cristallins de rats (Rattus norvegicus, UniProt P07943); assay: Aldose reductase inhibition in vitro (NADPH disappearance); assay type: biochemical; settings: rat lens enzyme, pH 7, 25°C, 10 min preincubation, substrate aldéhyde d-glycérique; read-out: inhibition à 50 %
T1 construct: l'aldose-réductase extraite de cristallins de rats; from tissue; host or cells: rat lens (CD River rats)
Protocol: L'activité inhibitrice d'aldose-réductase des composés de la présente invention a été mise en évidence par des essais in vitro sur l'aldose-réductase […] selon la technique […] et J.H. KINOSHITA, J. Biol. Chem. 240 (1965) 877, […] et J.H. KINOSHITA, Biochemical Pharmacolo- gy 5 (1976) 2505-2613. : La biflavanone (I), mise en suspension dans du tampon pH 7, est placée en incubation à 25°C dans un […] bouché contenant l'aldose-réductase […] CD River. Après 10 mn de contact, le substrat ([…] introduit dans la cuve deré- action. La cinétique enzymatique est appréciée par la disparition, du milieu, du co-facteur Ac. Nicotinamide-adénine diphosphorique réduite (NADPH) selon la réaction : [drawing 6] On calcule l'activité enzymatique par détermination de la quantité de NADPH disparue. Les résultats sont exprimés en pourcentage de l'activité enzymatique de la préparation en l'absence de tout inhibiteur. Dans ces conditions on peut déterminer, par exemple, la dose minimale qui inhibe à 50 % l'activité enzymatique.

[2] = test system: résistance capillaire; assay: Parrot method: capillary resistance under vitamin P-deficient diet; assay type: in vivo; settings: injection of 50 mg/kg; cobaye; mean of 10 animals; measured 3 to 48 h after administration
Source text: Pour mettre en évidence l'action sur la résistance capillaire, nous avons utilisé […]. PARROT et coll. [C.R. Soc. Biol. 140 750 (1946)]. Elle consiste à étudier les variations de la résistance capillaire chez le cobaye soumis à un […] vitaminique P(C2), mais équilibré en vitamine C. La résistance capillaire est mesurée au niveau de la région lombaire en appliquant sur la peau, préalablement épilée, une ventouse de verre de 5 mm de diamètre. On détermine la valeur de la dépression, exprimée en cm de mercure; qu'il faut réaliser pour […], au bout de 50 secondes environ, 3 […] sur la surface entourée. Cette dépression […] comprise entre 25 et 35 cm de mercure, mais elle chute à 10 cm de Hg chez les animaux soumis au […]é pendant 10 jours. […] L'élévation de la résistance capillaire et sa durée sont […]- quement par la valeur de la surface obtenue en portant sur un système de coordonné[…]. On a constaté […] surface est de 20,8 cm ^2 après injection de 50 mg/kg de biflavanone (I), […] que la même dose de rutine ne donne que 6,42 cm^2.

[3] = High-dose toxicity, intraperitoneal administration, rat; settings: in vivo, ip, rat Sprague Dawley, male, read-out: dose maximale toujours tolérée
Protocol: Elle a été déterminée sur des groupes homogènes de souris Swiss et NMRI mâles, de race pure, pesant de 19 à 22 g et sur des groupes homogènes de rats Sprague Dawley màles adultes d'un poids moyen de 300 g..
En administration intrapéritonéale, aussi bien chez le rat que chez la souris, la dose maximale toujours tolérée est supérieure à 3 et 4.000 mg/kg.

[4] = test system: perméabilité des parois des vaisseaux sanguins; assay: Beach and Steinetz method: Trypan blue content of chloroform-irritated skin; assay type: in vivo, lapin; settings: rabbit
Source text: La technique d'AMBROSE et DE EDS a été modifiée afin de mesurer la coloration de la tache selon la technique de BEACH et STEINETZ [(J. Pharm. Expl. Therap. (1961) 131, n° 1, p. 400 à 406)]. Des lapins New-Zealand mâles de 2,5 kg reçoivent une injection IP de produit à tester, ou d'eau gommée pour les témoins.
Trente minutes après, sur la peau abdominale.préalablement épilée, un tampon de chloroforme est appliqué trente secondes, afin de créer une irritation locale qui favorise la diffusion du colorant hors des capillaires vers les liquides interstitiels.
Immédiatement après,une solution de Bleu Trypan à 25mg/kg est injectée dans la veine marginale de l'oreille. Une tache bleue apparait à l'endroit irrité. Le lapin est tué par Einjection intracardiaque de pentobarbital, 30 minutes après l'injection du Bleu Trypan.
Les fragments de peau sont prélevés, posés et laissés à digérer 24 heures dans HCI pur. Le Bleu Trypan est dosé selon la technique de BEACH et STEINETZ.
Après la dissolution complète, l'addition de 3 ml de chlorure de Benzalkonium en solution aqueuse à 12,80 % complexe le colorant qui est ensuite repris par 5 ml de chloroforme. Après centrifugation, la phase chloroformique bleue est rapidement soutirée et filtrée, la lecture spectrophotométrique est faite immédiatement afin d'éviter une concentration du colorant par évaporation du chloroforme. Les densités optiques à 620 mn sont traduites en µg de bleu/100 mg de tissu.
Le protocole opératoire précédent a été utilisé et les doses 200 et 400 mg ont été administrées. Les résultats, exprimés en ng de colorant par 100 g de peau fraiche sont donnés dans le tableau suivant : […]

[5] = test system: perméabilité capillaire; assay: Lefebvre technique: appearance of a dye at an intradermal histamine injection site; assay type: in vivo; settings: intraperitoneal 100 mg/kg, rat
Protocol: D'autres tests, utilisés chez le rat, ont confirmé les possibilités de la biflavanone dans la diminution de la perméabilité capillaire par rapport aux produits de référence classiques, et notamment les tests réalisés selon la technique de […]. Soc. Biol. 1, 183 (1962)] qui consiste à observer l'apparition d'un colorant au niveau d'une injection intradermique d'histamine. Il a été constaté que l'infection intrapéritonéale de 100 mg/kg de biflavanone (I) […]'apparition de la coloration de 70 % . La rutine a la même dose ne provoque qu'un retard de 12 %

[6] = test system: perméabilité des parois des vaisseaux sanguins; assay: Ambrose and De Eds method: time of appearance of Trypan blue at chloroform-irritated skin; assay type: in vivo, lapin; settings: voie orale, suspension, rabbit, maximum of activity about 6 to 7 h after administration
Protocol: Nous avons utilisé une méthode dérivée de celle décrite par AMBROSE et DE EDS [J. Pharm. Exp. Ther. 90, 359 (1947)] . Un lapin mâle fauve, d'un poids compris entre 2,0 et 2,5 kg, est épilé sur toute la région ventrale à l'aide d'une pâte au sulfure de baryum. Le lendemain l'animal reçoit, en injection intraveineuse 25mg/kg d'une'solution aqueuse de Bleu Trypan à 1 p. 100. Trente minutes après cette injection,on applique pendant 30 secondes un tampon de coton de 1,2 cm de côté, imbibé de chloroforme, en deux ou trois points de la zone êpi- lée, et on note le temps d'apparition de la couleur bleue.
Ce temps doit être sensiblement constant quel que soit le point d'application du tampon et traduit la plus ou moins grande rapidité avec laquelle le colorant quitte le courant sanguin pour imprégner les tissus sous-cutanés.
Le produit à tester est alors aussitôt administré soit par voie intra-péritonéale, soit par voie orale. L'agent irritant est appliqué de nouveau, à des intervalles de quinze minutes, en d'autres points de la zone épilée : on note à chaque fois le temps d'apparition de la coloration bleue.
On opère en principe sur des lots de sept lapins par dose et par produit. Il est à noter que : • - la réponse à l'agent irritant n'étant pas forcément identique selon le point d'application sur l'abdomen, il faut faire varier systématiquement "les points témoins" et les "points traités" d'un lapin à l'autre; • - il faut toujours considérer le temps d'apparition de la coloration bleue et non le temps de son développement complet; • - au bout d'une heure d'expérience, et à chaque heure ensuite, il faut refaire une injection intraveineuse de Bleu Trypan de 1ml de solution aqueuse à 1 p.100; • - chaque lapin est son propre témoin.
Le protocole opératoire précédent a été utilisé et les doses suivantes ont été administrées : 500 mg et 1.000 mg/kg. La biflavanone (I) a été ingérée sous forme de solution aqueuse additionnée de 5 % de gomme adragante. Les résultats sont évalués en pourcentage d'augmentation du temps d'apparition de la couleur bleue au niveau du point d'application par rapport au temps de base mesuré avant traitement, et comparés à des substances de référence administrées dans les mêmes conditions catéchine hydrate, hespéridine, quercétine, rutine. Les résultats sont consignés dans le tableau ci-dessous, le maximum d'activité étant obtenu 6 à 7 heures environ après l'administration du produit.

[7] = I.P. 200 mg/kg, eau gommée control 4,62 ± 1,4
[8] = I.P. 400 mg/kg, eau gommée control 5,01 ± 2,3

Structure (SMILES)	IC50 [1] [nM]	Augmentation % du temps d'apparition par rapport au temps témoin ([6]; 1.000 mg/kg) [%]	Augmentation % du temps d'apparition par rapport au temps témoin ([6]; 500 mg/kg) [%]	further results
O=C(O)CN1C(=O)c2cccc3cccc(c23)C1=O [Alrestatine, alrestatine]	1000	–	–	–
O=C1c2c(O)cc(O)c(C3C(=O)c4c(O)cc(O)cc4OC3c3ccc(O)c(O)c3)c2OC(c2ccc(O)c(O)c2)C1O (stereo not drawn) [Biflavanone (I), manniflavone]	100 to 250	125	50	surface (élévation de la résistance capillaire et sa durée, planimétrie) [2]: 20,8 cm^2; MTD [3]: > 3 mg/kg; CON[…] BLEU TRYPAN [4, 7]: 4 ± 2,3 µg/100 g DE PEAU; CON[…] BLEU TRYPAN [4, 8]: 3,1 ± 2,3 µg/100 g DE PEAU; retard de l'apparition de la coloration [5]: 70%
Oc1cc(O)c2c(c1)O[C@H](c1ccc(O)c(O)c1)[C@@H](O)C2 [Catéchine hydrate]	–	50	38	–
COc1ccc(-c2cc(=O)c3c(O)cc(O[C@@H]4O[C@H](CO[C@@H]5O[C@@H](C)[C@H](O)[C@@H](O)[C@H]5O)[C@@H](O)[C@H](O)[C@H]4O)cc3o2)cc1O [Diosmine, diosmine]	50000 to 100000	–	–	CONCENTRATION DU BLEU TRYPAN [4, 7]: 2,66 ± 2 µg/100 g DE PEAU; CONCENTRATION DU BLEU TRYPAN [4, 8]: 2,50 ±1,6 µg/100 g DE PEAU
COc1ccc([C@@H]2CC(=O)c3c(O)cc(O[C@@H]4O[C@H](CO[C@@H]5O[C@@H](C)[C@H](O)[C@@H](O)[C@H]5O)[C@@H](O)[C@H](O)[C@H]4O)cc3O2)cc1O [Hespé-ridine, hespéridine]	–	0	0	–
O=c1c(O)c(-c2ccc(O)c(O)c2)oc2cc(O)cc(O)c12 [Quercé-tine, quercétine]	–	0	0	–
C[C@@H]1O[C@@H](OC[C@H]2O[C@@H](Oc3c(-c4ccc(O)c(O)c4)oc4cc(O)cc(O)c4c3=O)[C@H](O)[C@@H](O)[C@@H]2O)[C@H](O)[C@H](O)[C@H]1O [Rutine, rutine]	–	77	27	surface (élévation de la résistance capillaire et sa durée, planimétrie) [2]: 6,42 cm^2; CONCENTRATION DU BLEU TRYPAN [4, 7]: 3,6 ± 1,8 µg/100 g DE PEAU; CONCENTRATION DU BLEU TRYPAN [4, 8]: 3,2 ± 2 µg/100 g DE PEAU; retard de l'apparition de la coloration [5]: 12%
